ChEMBL document CHEMBL5252515, “Discovery of 6-Amino-2-{[(1S)-1-methylbutyl]oxy}-9-[5-(1-piperidinyl)pentyl]-7,9-dihydro-8H-purin-8-one (GSK2245035), a Highly Potent and Selective Intranasal Toll-Like Receptor 7 Agonist for the Treatment of Asthma” (J Med Chem, 2016)
Converted amounts (≈) assume the structure as drawn. The source made the active and inactive calls. The rule behind the calls is not given here.

Columns and labels:
[1] = biological target: T1, Toll-like receptor 7 (Homo sapiens, UniProt Q9NYK1); assay: Agonist activity at TLR7 in human whole blood assessed as induction of IL-12p70 production after 20 hrs by electrochemiluminescence assay; assay type: tissue-based
T1 sequence (Q9NYK1 whole entry): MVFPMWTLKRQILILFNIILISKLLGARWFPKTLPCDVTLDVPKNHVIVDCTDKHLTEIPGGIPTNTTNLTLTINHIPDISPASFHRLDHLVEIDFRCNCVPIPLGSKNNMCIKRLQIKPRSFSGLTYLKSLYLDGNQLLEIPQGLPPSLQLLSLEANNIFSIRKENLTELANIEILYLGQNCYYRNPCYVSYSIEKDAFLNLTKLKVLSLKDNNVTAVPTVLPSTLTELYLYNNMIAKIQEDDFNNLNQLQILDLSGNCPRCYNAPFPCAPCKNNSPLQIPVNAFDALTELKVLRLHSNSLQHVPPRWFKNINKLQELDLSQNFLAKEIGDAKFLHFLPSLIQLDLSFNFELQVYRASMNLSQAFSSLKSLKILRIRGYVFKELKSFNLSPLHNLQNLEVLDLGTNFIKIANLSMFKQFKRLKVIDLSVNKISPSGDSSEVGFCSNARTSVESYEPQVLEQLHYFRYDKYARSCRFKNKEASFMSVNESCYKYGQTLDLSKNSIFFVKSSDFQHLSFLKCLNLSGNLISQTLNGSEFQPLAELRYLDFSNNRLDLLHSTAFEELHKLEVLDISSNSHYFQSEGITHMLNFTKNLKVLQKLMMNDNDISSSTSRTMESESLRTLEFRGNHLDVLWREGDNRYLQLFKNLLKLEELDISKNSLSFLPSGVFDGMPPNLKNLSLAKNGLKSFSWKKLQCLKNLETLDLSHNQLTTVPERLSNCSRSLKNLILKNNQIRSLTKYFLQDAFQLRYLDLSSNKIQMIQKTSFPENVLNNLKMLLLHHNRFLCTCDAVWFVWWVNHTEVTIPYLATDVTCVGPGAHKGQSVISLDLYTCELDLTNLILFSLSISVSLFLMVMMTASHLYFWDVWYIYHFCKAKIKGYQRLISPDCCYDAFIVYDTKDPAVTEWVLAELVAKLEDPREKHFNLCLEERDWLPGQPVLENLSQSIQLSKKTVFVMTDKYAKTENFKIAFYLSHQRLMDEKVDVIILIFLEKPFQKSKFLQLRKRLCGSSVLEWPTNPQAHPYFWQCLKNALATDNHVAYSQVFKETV

[2] = test system: Cynomolgus monkey; assay: Increase in IP-10 level in cynomolgus monkey serum at 30 ng/kg, administered intranasally after 6 hrs; assay type: functional, organism-based; details: Macaca fascicularis
[3] = Solubility of the compound at pH-7; assay type: physicochemical
[4] = biological target: T2, Toll-like receptor 9 (Homo sapiens) (UniProt Q9NR96); assay: Agonist activity at TLR9 (unknown origin) expressed in human HEK cells upto 50 uM by luciferase reporter assay; assay type: cell-based
T2 sequence (whole entry): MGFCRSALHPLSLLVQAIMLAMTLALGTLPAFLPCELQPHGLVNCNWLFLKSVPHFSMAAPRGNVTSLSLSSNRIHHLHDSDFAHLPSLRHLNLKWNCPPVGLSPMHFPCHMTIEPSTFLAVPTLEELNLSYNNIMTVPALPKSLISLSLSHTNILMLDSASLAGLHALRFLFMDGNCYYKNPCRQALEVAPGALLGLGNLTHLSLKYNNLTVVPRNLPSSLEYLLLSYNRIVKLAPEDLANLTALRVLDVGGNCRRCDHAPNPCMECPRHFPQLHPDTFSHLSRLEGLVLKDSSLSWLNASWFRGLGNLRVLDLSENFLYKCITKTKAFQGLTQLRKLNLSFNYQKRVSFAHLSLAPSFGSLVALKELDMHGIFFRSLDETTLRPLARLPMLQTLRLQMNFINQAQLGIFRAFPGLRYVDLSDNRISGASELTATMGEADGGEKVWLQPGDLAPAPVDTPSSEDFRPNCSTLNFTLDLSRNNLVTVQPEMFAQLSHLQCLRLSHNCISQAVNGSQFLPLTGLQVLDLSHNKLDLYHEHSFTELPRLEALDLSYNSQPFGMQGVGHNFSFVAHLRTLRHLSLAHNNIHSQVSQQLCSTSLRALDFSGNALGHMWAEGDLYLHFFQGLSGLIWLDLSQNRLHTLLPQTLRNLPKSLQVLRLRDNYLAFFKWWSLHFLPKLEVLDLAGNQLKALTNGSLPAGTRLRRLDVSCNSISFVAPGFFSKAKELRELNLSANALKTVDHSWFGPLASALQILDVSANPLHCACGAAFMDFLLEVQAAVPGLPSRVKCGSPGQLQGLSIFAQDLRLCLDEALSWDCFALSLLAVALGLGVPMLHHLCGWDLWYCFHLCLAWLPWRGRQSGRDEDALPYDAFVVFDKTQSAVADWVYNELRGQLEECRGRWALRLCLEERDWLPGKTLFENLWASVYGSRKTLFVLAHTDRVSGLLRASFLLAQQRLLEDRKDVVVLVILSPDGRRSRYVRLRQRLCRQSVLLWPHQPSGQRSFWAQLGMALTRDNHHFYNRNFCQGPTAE

EC50 [1]: 63.1 nM
solubility [3]: 11 mg/mL (≈ 28.2 mM)
Activity [4]: inactive
Compound: CCC[C@H](C)Oc1nc(N)c2[nH]c(=O)n(CCCCCN3CCCCC3)c2n1 [GSK-2245035]
Activity [2]: Active
